Patent US6583180B2, “Glucocorticoid receptor modulators” (Abbott Laboratories, priority 2001, dated 2003)

These molecules were tested against T1, Human glucocorticoid receptors (Homo sapiens, UniProt P04150) (assay: Radioligand filter binding assay, displacement of 3[H]-dexamethasone from hGR). Settings: read-out: GR Binding (% Inhibition at 1.7 μM).
T1 construct: made in house; host or cells: Sf9 insect cells, recombinant baculovirus (BAC-TO-BAC)
T1 sequence (P04150 1-777): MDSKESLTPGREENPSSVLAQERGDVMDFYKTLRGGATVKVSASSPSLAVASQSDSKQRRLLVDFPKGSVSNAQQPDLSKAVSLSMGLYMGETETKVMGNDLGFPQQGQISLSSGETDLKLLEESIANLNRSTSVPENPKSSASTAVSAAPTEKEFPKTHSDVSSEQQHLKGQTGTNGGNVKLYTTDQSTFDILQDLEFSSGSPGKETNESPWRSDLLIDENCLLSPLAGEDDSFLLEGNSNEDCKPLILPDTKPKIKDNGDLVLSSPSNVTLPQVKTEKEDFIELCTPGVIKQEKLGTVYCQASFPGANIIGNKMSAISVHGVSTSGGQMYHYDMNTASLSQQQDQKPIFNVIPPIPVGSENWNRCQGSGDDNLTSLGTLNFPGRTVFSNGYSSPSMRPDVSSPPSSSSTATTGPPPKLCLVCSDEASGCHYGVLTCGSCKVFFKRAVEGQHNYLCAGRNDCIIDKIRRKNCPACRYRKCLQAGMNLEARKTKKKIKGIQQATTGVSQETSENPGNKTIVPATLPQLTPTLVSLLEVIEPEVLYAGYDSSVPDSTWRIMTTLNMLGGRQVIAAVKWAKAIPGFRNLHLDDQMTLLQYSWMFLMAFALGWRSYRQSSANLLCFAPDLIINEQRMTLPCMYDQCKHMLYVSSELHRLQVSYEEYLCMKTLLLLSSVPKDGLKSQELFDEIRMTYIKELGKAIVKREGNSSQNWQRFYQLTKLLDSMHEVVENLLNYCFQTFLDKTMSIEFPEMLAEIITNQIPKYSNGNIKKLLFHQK
Source text: Dexamethasone hereafter referred to as dex was purchased from SIGMA. […] Human glucocorticoid receptors were extracted from Sf9 cells infected with a recombinant baculovirus transfer vector containing the cloned hGR genes. Recombinant baculovirus was generated utilizing the BAC-TO-BAC expression system (Life Technologies) in accordance to instruction from the supplier. The hGR coding sequences were cloned into a baculovirus transfer vector by standard techniques. The recombinant baculoviruses expressing hGR were amplified and used to infect Sf9 cells. Infected cells were harvested 48 hrs post infection. […] The concentration of hGR in the extract was measured as specific ^3[H]-dex binding with the G25-assay as described in J. Steroid Biochem. Molec. […] The extract was aliquoted and stored at −70° C.
The filter binding assay: Dilution series of the test compounds and dex as reference were made from 10 mM (1 mM dex) stock solutions in DMSO. 10 μl of the dilutions was added in duplicates to the wells. The cell extracts were diluted 10 fold in EPMo+MTG buffer (1 mM EDTA, HPO4 20 mM (pH8), 6 mM MTG). […] 110 μl of the diluted ^3[H]-dex were added to the wells. The final concentration of hGR in the experiment was estimated to 1 nM. All preparations were made in […] on ice and with +4° C. temperated buffers. The plates were incubated over night at +4° C. (15-20 hours).
The incubation was stopped by filtration through GF/B filter on the Tomtec Cellharvester. The filtration on the Tomtec Cellharvester was programmed as follows: 1) Preparation before filtration with EP buffer (1 mM EDTA 20 mM HPO4 (pH8)) 2×[Wash/Asp 0.6 sec., Asp 0.5 sec.]; 2) Prewet of GF/B filter with EP+PEI buffer (EP buffer, 0.3% Polyethylenimine) [Asp 0.8 sec.]; 3) Filtration/harvesting of the 96-well incubation plate 3×[Wash/Asp 0.6 sec., Asp 0.5 sec.]. The GF/B filter was dried for at least 1 hour at 65° C. A MeltiLex scintillation wax was melted onto the filter with the Microsealer. The filter was placed in a samplebag, which was thereafter trimmed with scissors to fit the filter cassette. The cassette were placed in the Microbeta and measured for 1 min/position, returning ccpm (corrected counts per minute).
b=((bmax−bmin)/(1+(I/IC50)^S))+bminI
The Microbeta-instrument generates the mean cpm (counts per minute) value/minute and corrects for individual variations between the detectors thus generating corrected cpm values.

inhibition at 1.7 µM [%]	Compound
91.5	Cc1c(NS(C)(=O)=O)cccc1N(Cc1ccccc1)Cc1ccc(Oc2ccc(OCCCCC(=O)NCC(=O)O)cc2)cc1 [Example 261, N-[5-(4-{4-[(benzyl{2-methyl-3-[(methylsulfonyl)amino]phenyl}amino)methyl]phenoxy}phenoxy)pentanoyl]glycine]
92.2	Cc1c(NS(C)(=O)=O)cccc1N(Cc1ccccc1)Cc1ccc(Oc2ccc(OCCCCC(=O)NCCC(=O)O)cc2)cc1 [Example 262, N-[5-(4-{4-[(benzyl{2-methyl-3-[(methylsulfonyl)amino]phenyl}amino)methyl]phenoxy}phenoxy)pentanoyl]-beta-alanine]
91.7	Cc1c(NS(C)(=O)=O)cccc1N(Cc1ccccc1)Cc1ccc(Oc2ccc(OCCCCC(=O)NCCCC(=O)O)cc2)cc1 [Example 263, 4-{[5-(4-{4-[(benzyl{2-methyl-3-[(methylsulfonyl)amino]phenyl}amino)methyl]phenoxy}phenoxy)pentanoyl]amino}butanoic acid]
89.5	Cc1c(NS(C)(=O)=O)cccc1N(Cc1ccccc1)Cc1ccc(Oc2ccc(OCCCCC(=O)N(C)CC(=O)O)cc2)cc1 [Example 264, N-[5-(4-{4-[(benzyl{2-methyl-3-[(methylsulfonyl)amino]phenyl}amino)methyl]phenoxy}phenoxy)pentanoyl]-N-methylglycine]
90	Cc1c(NS(C)(=O)=O)cccc1N(Cc1ccccc1)Cc1ccc(Oc2ccc(OCCCCC(=O)N[C@@H](CCC(=O)O)C(=O)O)cc2)cc1 [Example 265, N-[5-(4-{4-[(benzyl{2-methyl-3-[(methylsulfonyl)amino]phenyl}amino)methyl]phenoxy}phenoxy)pentanoyl]-L-glutamic acid]
90.7	Cc1c(NS(C)(=O)=O)cccc1N(Cc1ccccc1)Cc1ccc(Oc2ccc(OCCCCC(=O)N[C@H](C(=O)O)C(C)C)cc2)cc1 [Example 266, N-[5-(4-{4-[(benzyl{2-methyl-3-[(methylsulfonyl)amino]phenyl}amino)methyl]phenoxy}phenoxy)pentanoyl]-L-valine]
92.2	Cc1c(NS(C)(=O)=O)cccc1N(Cc1ccccc1)Cc1ccc(Oc2ccc(OCCCCC(=O)N3CCC[C@H]3C(=O)O)cc2)cc1 [Example 267, 1-[5-(4-{4-[(benzyl{2-methyl-3-[(methylsulfonyl)amino]phenyl}amino)methyl]phenoxy}phenoxy)pentanoyl]-L-proline]
90.8	Cc1c(NS(C)(=O)=O)cccc1N(Cc1ccccc1)Cc1ccc(Oc2ccc(OCCCCC(=O)NC3CCOC3=O)cc2)cc1 (stereo not drawn) [Example 268, 5-(4-{4-[(benzyl{2-methyl-3-[(methylsulfonyl)amino]phenyl}amino)methyl]phenoxy}phenoxy)-N-(2-oxotetrahydrofuran-3-yl)pentanamide]
90.7	Cc1c(NS(C)(=O)=O)cccc1N(Cc1ccccc1)Cc1ccc(Oc2ccc(OCCCCC(=O)N[C@@H](CO)C(=O)O)cc2)cc1 [Example 269, N-[5-(4-{4-[(benzyl{2-methyl-3-[(methylsulfonyl)amino]phenyl}amino)methyl]phenoxy}phenoxy)pentanoyl]-L-serine]
91.1	CC[C@H](C)[C@H](NC(=O)CCCCOc1ccc(Oc2ccc(CN(Cc3ccccc3)c3cccc(NS(C)(=O)=O)c3C)cc2)cc1)C(=O)O [Example 270, N-[5-(4-{4-[(benzyl{2-methyl-3-[(methylsulfonyl)amino]phenyl}amino)methyl]phenoxy}phenoxy)pentanoyl]-L-isoleucine]
91	Cc1c(NS(C)(=O)=O)cccc1N(Cc1ccccc1)Cc1ccc(Oc2ccc(OCC(=O)NCCCC(=O)O)cc2)cc1 [Example 271, 4-{[(4-{4-[(benzyl{2-methyl-3-[(methylsulfonyl)amino]phenyl}amino)methyl]phenoxy}phenoxy)acetyl]amino}butanoic acid]
90.2	Cc1c(NS(C)(=O)=O)cccc1N(Cc1ccccc1)Cc1ccc(Oc2ccc(OCC(=O)N(C)CC(=O)O)cc2)cc1 [Example 272, N-[(4-{4-[(benzyl{2-methyl-3-[(methylsulfonyl)amino]phenyl}amino)methyl]phenoxy}phenoxy)acetyl]-N-methylglycine]
91.2	Cc1c(NS(C)(=O)=O)cccc1N(Cc1ccccc1)Cc1ccc(Oc2ccc(OCC(=O)N[C@H](C(=O)O)C(C)C)cc2)cc1 [Example 273, N-[(4-{4-[(benzyl{2-methyl-3-[(methylsulfonyl)amino]phenyl}amino)methyl]phenoxy}phenoxy)acetyl]-L-valine]
89.9	Cc1c(NS(C)(=O)=O)cccc1N(Cc1ccccc1)Cc1ccc(Oc2ccc(OCC(=O)NC3CCOC3=O)cc2)cc1 (stereo not drawn) [Example 274, 2-(4-{4-[(benzyl{2-methyl-3-[(methylsulfonyl)amino]phenyl}amino)methyl]phenoxy}phenoxy)-N-(2-oxotetrahydrofuran-3-yl)acetamide]
90.5	Cc1c(NS(C)(=O)=O)cccc1N(Cc1ccccc1)Cc1ccc(Oc2ccc(OCC(=O)N[C@@H](CO)C(=O)O)cc2)cc1 [Example 275, N-[(4-{4-[(benzyl{2-methyl-3-[(methylsulfonyl)amino]phenyl}amino)methyl]phenoxy}phenoxy)acetyl]-L-serine]
89.2	Cc1c(NS(C)(=O)=O)cccc1N(Cc1ccccc1)Cc1ccc(Oc2ccc(OCC(=O)N[C@@H](CC(N)=O)C(=O)O)cc2)cc1 [Example 276, N˜2˜-[(4-{4-[(benzyl{2-methyl-3-[(methylsulfonyl)amino]phenyl}amino)methyl]phenoxy}phenoxy)acetyl]-L-asparagine]
90.6	Cc1c(NS(C)(=O)=O)cccc1N(Cc1ccccc1)Cc1ccc(Oc2ccc(OCC(=O)NN)cc2)cc1 [Example 277, N-[3-(benzyl{4-[4-(2-hydrazino-2-oxoethoxy)phenoxy]benzyl}amino)-2-methylphenyl]methanesulfonamide]
90.1	Cc1c(NS(C)(=O)=O)cccc1N(Cc1ccccc1)Cc1ccc(Oc2cccc(OC[C@@H]3CCC(=O)N3)c2)cc1 [Example 278, N-(3-{benzyl[4-(3-{[(2S)-5-oxopyrrolidin-2-yl]methoxy}phenoxy)benzyl]amino}-2-methylphenyl)methanesulfonamide]
91.7	Cc1c(NS(C)(=O)=O)cccc1N(Cc1ccccc1)Cc1ccc(Oc2cccc(OCCCC(=O)N3CCCC(C(=O)O)C3)c2)cc1 (stereo not drawn) [Example 279, 1-[4-(3-{4-[(benzyl{2-methyl-3-[(methylsulfonyl)amino]phenyl}amino)methyl]phenoxy}phenoxy)butanoyl]piperidine-3-carboxylic acid]
89.5	Cc1c(NS(C)(=O)=O)cccc1N(Cc1ccccc1)Cc1ccc(Oc2cccc(OCCCC(=O)N3CCC(C(=O)O)CC3)c2)cc1 [Example 280, 1-[4-(3-{4-[(benzyl{2-methyl-3-[(methylsulfonyl)amino]phenyl}amino)methyl]phenoxy}phenoxy)butanoyl]piperidine-4-carboxylic acid]
90	Cc1c(NS(C)(=O)=O)cccc1N(Cc1ccccc1)Cc1ccc(Oc2cccc(OCCCC(=O)N3CCCCC3C(=O)O)c2)cc1 (stereo not drawn) [Example 281, 1-[4-(3-{4-[(benzyl{2-methyl-3-[(methylsulfonyl)amino]phenyl}amino)methyl]phenoxy}phenoxy)butanoyl]piperidine-2-carboxylic acid]
